Experimental data published in ChEMBL document CHEMBL1144599, “In vitro antimalarial activity of hyperforin, a prenylated acylphloroglucinol. A structure-activity study” (Bioorg Med Chem Lett, 2007).
Counter-ions that a name gives are not always drawn.

Legend:
Plasmodium falciparum = assay: Antiplasmodial activity after 48 hrs against Plasmodium falciparum K1 in human erythrocytes; assay type: functional, organism-based
L6 = assay: Cytotoxicity against rat L6 cells after 72 hrs; assay type: cell-based
[1] = Plasmodium falciparum, K1, 48 h

Row | Compound | IC50 (Plasmodium falciparum; [1]) [µM] | IC50 (L6; Rattus norvegicus, L6, 72 h) [µM] | IC50 (L6; l6) [µM] | IC50 (Plasmodium falciparum) [µM]
1 | COC1=C(CC=C(C)C)C(=O)[C@@]2(C(=O)C(C)C)C(=O)[C@]1(CC=C(C)C)C[C@H](CC=C(C)C)[C@@]2(C)CCC=C(C)C | 7.8 |  |  | 
2 | CC(C)=CCC[C@]1(C)[C@@H](CC=C(C)C)C[C@]2(CC=C(C)C)C(=O)C(Cl)(CC=C(C)C)C(=O)[C@@]1(C(=O)C(C)C)C2=O (stereo not given in full) | 6.7 |  |  | 
3 | CC(=O)C1=C(O)C=C2Oc3c(C(C)=O)c(O)c(C)c(O)c3C2(C)C1=O (stereo not given) | 16.1 |  |  | 
4 | CC(C)=CCC[C@]1(C)[C@@H](CC=C(C)C)C[C@]2(CC=C(C)C)C(=O)C(CC=C(C)C)=C(O)[C@@]1(C(=O)C(C)C)C2=O [listing 1 of 2 here] | 1.5 | 2.21 |  | 
5 | CC(C)=CCC[C@]1(C)[C@@H](CC=C(C)C)C[C@]2(CC=C(C)C)C(=O)C(CC=C(C)C)=C(O)[C@@]1(C(=O)C(C)C)C2=O [listing 2 of 2 here] |  |  | 3.29 | 2.1
6 | CC(C)=CCC[C@]1(C)[C@@H](CC=C(C)C)C[C@]23CC(C(C)(C)O)OC2=C(CC=C(C)C)C(=O)[C@@]1(C(=O)C(C)C)C3=O (stereo not given in full) [FUROHYPERFORIN] | 1.7 | 16.1 |  | 
7 | CC(C)=CCC[C@]1(C)[C@@H](CC=C(C)C)C[C@]2(CC=C(C)C)C(=O)[C@@]3(CC=C(C)C)O[C@@]2(O)[C@]1(C(=O)C(C)C)C3=O [HYPERFORINHEMIACETAL] | 2 | 16.1 |  | 
8 | COc1cc(C(=O)OC2=C(CC=C(C)C)C(=O)[C@@]3(C(=O)C(C)C)C(=O)[C@]2(CC=C(C)C)C[C@H](CC=C(C)C)[C@@]3(C)CCC=C(C)C)cc(OC)c1OC [HYPERFORINTRIMETHOXYBENZOATE] | > 27 |  |  | 
9 | CC(C)CCC[C@]1(C)[C@@H](CCC(C)C)C[C@@]2(CCC(C)C)C(=O)[C@]1(C(=O)C(C)C)C(=O)C(CCC(C)C)=C2O [OCTAHYDROHYPERFORIN DICYCLOHEXYLAMMONIUM SALT] |  |  | 3.12 | 1.4
10 | CC(C)CCC[C@]1(C)[C@@H](CCC(C)C)C[C@@]2(CCC(C)C)C(=O)[C@]1(C(=O)C(C)C)C(=O)C(CCC(C)C)=C2O [OCTAHYDROHYPERFORIN] | 2.7 | 2.12 |  | 

More lines, main results first:

Row | IC50 (Plasmodium falciparum; [1]) [µM] | Compound | IC50 (L6; Rattus norvegicus, L6, 72 h) [µM] | IC50 (L6; l6) [µM] | IC50 (Plasmodium falciparum) [µM]
11 | > 27 | CC(C)=CCC[C@]1(C)[C@@H](CC=C(C)C)C[C@]2(CC=C(C)C)C(=O)C(C)(CC=C(C)C)C(=O)[C@@]1(C(=O)C(C)C)C2=O (stereo not given in full) |  |  | 
12 | 0.6 | CC(C)=CCC[C@]1(C)[C@@H](CC=C(C)C)C[C@]2(CC=C(C)C)C(=O)[C@@](O)(CC=C(C)C)C(=O)[C@@]1(C(=O)C(C)C)C2=O | 19.7 |  | 
13 | 3.8 | CC(C)=C/C=C1/OC(=O)[C@@]2(CC=C(C)C)C[C@H](CC=C(C)C)[C@@](C)(CCC=C(C)C)[C@H](C(=O)C(C)C)C(=O)[C@@]12O | 36 |  | 
14 | 15.3 | CC(=O)C1=C(O)C=C2Oc3c(C(C)=O)c(O)c(C)c(O)c3[C@@]2(C)C1=O [(+)-USNIC ACID] |  |  | 
15 | 8.6 | CC(C)=CCC[C@]1(C)[C@@H](CC=C(C)C)C[C@@]2(CC=C(C)C)C(=O)[C@]1(C(=O)C(C)C)C(=O)C1=C2OC(C)(C)C=C1 [DEHYDROHYPERFORIN] |  |  | 
16 | 4.8 | CC(C)=CCC[C@]1(C)[C@@H](CC=C(C)C)C[C@@]2(CC=C(C)C)C(=O)[C@]1(C(=O)C(C)C)C(=O)C(CC=C(C)C)=C2OC(=O)c1cccnc1 [HYPERFORINNICOTINATE] | 23.9 |  | 
